Test results from ChEMBL document CHEMBL1133053, “(S)-Thiirancarboxylic acid as a reactive building block for a new class of cysteine protease inhibitors” (Bioorg Med Chem Lett, 2000).
pIC50: −log10 of the molar value.

Assays:
Papain (Carica papaya) [1] = target: T1, Papain (Carica papaya) (UniProt P00784); assay: The second order rate constant of inactivation was reported
T1 sequence (whole entry): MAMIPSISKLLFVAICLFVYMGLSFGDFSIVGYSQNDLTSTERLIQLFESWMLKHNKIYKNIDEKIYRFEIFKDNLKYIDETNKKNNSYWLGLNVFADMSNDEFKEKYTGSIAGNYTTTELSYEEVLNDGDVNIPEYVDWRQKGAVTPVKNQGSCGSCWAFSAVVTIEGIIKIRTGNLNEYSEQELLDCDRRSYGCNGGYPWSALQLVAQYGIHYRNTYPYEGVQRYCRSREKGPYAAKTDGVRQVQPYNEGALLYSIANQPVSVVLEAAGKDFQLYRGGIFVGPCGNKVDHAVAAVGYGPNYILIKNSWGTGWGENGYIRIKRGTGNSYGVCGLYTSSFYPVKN

Papain (Carica papaya) [2] = target: T1, Papain (Carica papaya); assay: The second order rate constant of inactivation was reported at pH 4
Papain (Carica papaya) [3] = target: T1, Papain (Carica papaya); assay: The first order rate constant of inactivation was reported
Papain = target: T2, Papain (Carica papaya, UniProt P00784); assay: The compound was evaluated for inhibition of papain.
T2 sequence (P00784 whole entry): T1 sequence (whole entry)

Structure (SMILES) | K2 (Papain (Carica papaya) [1]) [M⁻¹ s⁻¹] | pIC50 (Papain) | also measured
O=C(O)[C@H]1CS1 | 3.7 | – | –
CCOC(=O)[C@H]1N[C@@H]1C(=O)O | 78.2 | – | K2 (Papain (Carica papaya) [2]): 413 M⁻¹ s⁻¹
COC(=O)[C@H]1CS1 | – | 6.70 | K1 (Papain (Carica papaya) [3]): 0.2 µM
CCOC(=O)[C@@H]1N[C@H]1C(=O)OCC | 0.2 | – | –
CCOC(=O)[C@H]1CS1 | – | 6.24 | K1 (Papain (Carica papaya) [3]): 0.57 µM
CCOC(=O)C1OC1C(=O)OCC (stereo unspecified) | – | 6.68 | –
CCOC(=O)[C@@H]1O[C@H]1C(=O)OCC | 1.68 | – | –
CCOC(=O)[C@@H]1N[C@H]1C(=O)O | 58.8 | – | –
O=C(O)[C@@H]1CN1 | 17 | – | –
CCOC(=O)C1OC1C(=O)O (stereo unspecified) | – | 7.98 | –
CCOC(=O)[C@H]1O[C@@H]1C(=O)OCC | 1.73 | – | –
CCOC(=O)[C@H]1N[C@@H]1C(=O)OCC | 0.183 | – | K2 (Papain (Carica papaya) [2]): 1.02 M⁻¹ s⁻¹
